Experimental data published in patent US20150119372A1, “APPLICATION OF 18-METHYL-15SS,16SS-METHYLENE-19-NOR-20-SPIROX-4-EN-3-ONE SYSTEMS IN THE TREATMENT OF MENORRHAGIA, AS WELL AS INTRAUTERINE SYSTEMS CONTAINING 18-METHYL-15SS,16SS-METHYLENE-19-NOR-20-SPIROX-4-EN-3-ONE FOR TREATING UTERINE BLEEDING DISORDERS” (BAYER PHARMA AKTIENGESELLSCHAFT, priority 2012, published 2015).

Experiments:
[1] = tested on: uterus; assay: Uterine horn weight gain after implantation of progestin-containing IUS (rod) in ovary-resected rats; assay type: in vivo, rat; conditions: IUS (rod) in right uterine horn, FIG. 1/4
Protocol: (§1) The local uterine action of the progestin compared to systemic side effects (dissociation) was investigated on the basis of studies using rats. The uterus of ovary-resected rats responds to implantation of progestin-containing IUS (rods) with decidualization and weight gain. The local progestin effects were also determined on the basis of changes in gene expression.
(§2) Ovary-resected female rats were treated with estradiol (E2) for three days (0.2 μg/day/animal, subcutaneous dosing). On day 4, an IUS (rod) was implanted into the right uterine horn of each animal. The left uterine horn remained untreated for internal comparison. Administration of E2 was continued with a daily dose of 0.1 μg/animal to ensure responsiveness of the uterus (maintaining progesterone-receptor expression) to progestins. Blood was taken for LH level measurements on days 4, 10 and 17.

[2] = In vivo break-down in animal species; conditions: all animal species studied in vivo
[3] = tested on: IGFBP-1; assay: Gene expression analysis of marker genes in uterine tissue of rats carrying IUS (rods); assay type: in vivo; conditions: rat uterus, FIG. 3/4
Protocol: as §1
as §2, with “17. […]” for “17.”
Gene expression analysis was carried out with from 50 ng to 200 ng of cDNA per reaction on an SDS7900HT Real.time PCR system (Applied Biosystems, Carlsbad, USA) using TaqMan probes (Applied Biosystems; IGFBP-1 Rn00565713_m1, Cyp26a1 Rn00590308_m1, PPIA Rn00690933_m1) and the Fast Blue qPCR MasterMix Plus (Eurogentec, Liège, Belgium; #RT-QP2X-03+FB). For relative quantification, cyclophilin A (PPIA) was used as an endogenous control. Relative expression levels were calculated according to the comparative delta delta CT method.

[4] = In vitro (liver) break-down for humans; assay type: in vitro ADME; conditions: human liver in vitro
Protocol: The rapid in-vitro breakdown in the liver may also indicate rapid in-vivo breakdown, resulting in a very low systemic exposition of 18-methyl-15β,16β-methylene-19-nor-20-spirox-4-en-3-one and 18-Methyl-6α,7α,15β,16β-dimethylene-19-nor-20-spirox-4-en-3-one after administration through an IUS being calculated. The expected substance levels (Css=concentration at steady state) are calculated from the rate of release from the IUS divided by the clearance. Using a dose of 20 μg per day and woman, which corresponds to that of Mirena, gives a calculated systemic exposition (load) for 18-methyl-15β,16β-methylene-19-nor-20-spirox-4-en-3-one and 18-methyl-6α,7α,15β,16β-dimethylene-19-nor-20-spirox-4-en-3-one, which is over 30 times lower in comparison with Mirena®.

[5] = In-vitro metabolic studies (liver); assay type: in vitro ADME; conditions: all in-vitro metabolic studies (liver)
[6] = tested on: luteinizing hormone (LH); assay: Serum LH level in ovary-resected rats carrying IUS (rod), as a sign of systemic effect; assay type: in vivo, rat; conditions: FIG. 2/4
Protocol: Serum levels of luteinizing hormone (LH) are used for detecting systemic effects of the locally administered progestin. Basal serum-LH levels of ovary-resected rats are elevated compared to the LH levels of intact control animals. Undesired systemic efficacy of the uterine-administered progestin can be detected by a decrease in the LH level.
as §2

[7] = Mirena use; cited from earlier work
[8] = target: T1, human androgen receptor (Homo sapiens, UniProt P10275); assay: hAR transactivation in PC3 cells stably transfected with hAR and MTV-luc reporter gene; assay type: cell-based; conditions: hAR, MTV-luc reporter
T1 construct: expressed in transfected cells; host or cells: PC3 (human prostate carcinoma) cells, stably transfected with hAR and the MTV-luc reporter
T1 sequence (P10275 1-920): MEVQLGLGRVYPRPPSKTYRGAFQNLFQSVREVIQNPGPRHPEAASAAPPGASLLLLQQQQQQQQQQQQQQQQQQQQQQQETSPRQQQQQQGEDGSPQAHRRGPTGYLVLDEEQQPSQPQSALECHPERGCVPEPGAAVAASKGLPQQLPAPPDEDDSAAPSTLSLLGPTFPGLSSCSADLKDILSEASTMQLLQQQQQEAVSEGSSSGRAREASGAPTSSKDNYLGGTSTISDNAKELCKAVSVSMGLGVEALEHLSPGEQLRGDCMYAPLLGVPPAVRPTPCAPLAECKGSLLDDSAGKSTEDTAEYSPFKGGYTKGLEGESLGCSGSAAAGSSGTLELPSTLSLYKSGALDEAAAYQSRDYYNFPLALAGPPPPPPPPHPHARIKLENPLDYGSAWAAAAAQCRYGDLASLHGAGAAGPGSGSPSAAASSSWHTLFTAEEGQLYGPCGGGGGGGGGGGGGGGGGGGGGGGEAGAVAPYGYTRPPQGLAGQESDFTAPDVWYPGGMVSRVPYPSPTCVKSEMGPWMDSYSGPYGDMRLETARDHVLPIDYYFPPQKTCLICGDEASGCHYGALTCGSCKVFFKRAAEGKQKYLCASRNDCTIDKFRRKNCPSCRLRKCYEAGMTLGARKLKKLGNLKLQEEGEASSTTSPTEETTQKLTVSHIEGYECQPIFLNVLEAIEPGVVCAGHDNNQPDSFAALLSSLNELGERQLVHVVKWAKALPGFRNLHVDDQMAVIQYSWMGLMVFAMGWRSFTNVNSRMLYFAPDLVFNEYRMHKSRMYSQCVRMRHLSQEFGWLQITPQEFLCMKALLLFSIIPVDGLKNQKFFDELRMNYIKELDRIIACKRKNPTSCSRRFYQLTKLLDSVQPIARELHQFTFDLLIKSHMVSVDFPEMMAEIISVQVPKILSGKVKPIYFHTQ
Protocol: For this, different concentrations of the test substances were to cells with stable expression of the human androgen receptor, and activation of the androgen receptor can be detected via a reporter gene.
For transactivation studies, PC3 (human prostate carcinoma) cells which have been stably transfected with hAR and the MTV-luc reporter gene were used. […] The cells were cultured at 37° C. and 5% CO2. The test medium corresponded to the culture medium, except that 10% FCS was replaced with 5% activated carbon-treated FCS (CCS). Cells were seeded in wells of a 96 well plate (“CulturPlate” from Packard #6005180) with 2×10^4 cells/well/200 μl of test medium. The cells were incubated with different concentrations of the test substances, and 80 μl of substrate were measured using the “steadylite HTS Reporter Gene Assay System” from Perkin Elmer.

[9] = dose range tested: compound A 0.6-10 μg per animal and day, compound B 1-45 μg/animal and day

Row | SMILES | local efficacy by way of weight gain in the IUS-carrying uterine horn [1] | break-down rate in vivo [2] | rate of release from the IUS at which IGFBP-1 gene expression is induced, lower than with levonorgestrel [3] | break-down rate in vitro (liver) for humans [4] | break-down rate in in-vitro metabolic studies (liver) [5] | LH decrease (systemic side effect) ([6]; 10 μg/animal and day dose) | LH decrease (systemic side effect) [6, 9] | average plasma levels of active ingredient [7] | EC50 [8]
1 | CC[C@]12CCC3C4CCC(=O)C=C4CCC3C1[C@@H]1C[C@@H]1[C@@]21CCCO1 (stereo partly drawn) [compound A, 18-methyl-15β,16β-methylene-19-nor-20-spirox-4-en-3-one] | dose-dependent local efficacy by way of weight gain | very fast break-down rate | approx. 7 × | Very rapid break-down rates | very fast break-down rate | exception | no LH decrease |  | 
2 | C#C[C@]1(O)CC[C@H]2[C@@H]3CCC4=CC(=O)CC[C@@H]4[C@H]3CC[C@@]21CC [levonorgestrel] |  |  |  |  |  |  |  | around 206 pg/ml | 
3 | CC[C@]12CCC3C4CCC(=O)C=C4C4CC4C3C1[C@@H]1C[C@@H]1[C@@]21CCCO1 (stereo partly drawn) [compound B, 18-methyl-6α,7α,15β,16β-dimethylene-19-nor-20-spirox-4-en-3-one] | dose-dependent local efficacy by way of weight gain | very fast break-down rate |  | Very rapid break-down rates | very fast break-down rate |  | no LH decrease |  | 56 nM
